# Data taken from patent publication US9695155B2, “Herbicidal substituted pyrimidinyloxy benzene compounds” (E. I. DU PONT DE NEMOURS AND COMPANY, priority 2013, dated 2017).
# Experiments:
# barnyardgrass [1] = test: Test A postemergence; format: in vivo, Echinochloa crus-galli
# Method in brief: (§1)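 Visual 0–100 rating (100 = complete control) taken about 10 d post-treatment relative to untreated checks. Preemergence: directed soil spray on sown loam/sand pots. Postemergence: seedlings 2–10 cm, 1–2 leaf. Non-phytotoxic solvent formulation with surfactant.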
# galium [2] = test: Test C postemergence; format: in vivo, Galium aparine
# Method in brief: (§2)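 Sown in loam/sand → sprayed pre-emergence; or grown to 1–4 leaves in peat mix → sprayed post-emergence. Same solvent/surfactant formulation both ways. Greenhouse 13–15 d. Score 0–100 visual.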
# corn [3] = test: Test C preemergence; format: in vivo, Zea mays
# Method in brief: as §2
# corn [4] = test: Test C postemergence; format: in vivo, Zea mays
# Method in brief: as §2
# waterhemp = test: Test C postemergence; format: in vivo, Amaranthus rudis
# Method in brief: as §2
# Italian ryegrass = test: Test C postemergence; format: in vivo, Lolium multiflorum
# Method in brief: as §2
# galium [5] = test: Test C preemergence; format: in vivo, Galium aparine
# Method in brief: as §2
# lambsquarters = test: Test C postemergence; format: in vivo, Chenopodium album
# Method in brief: as §2
# rice = test: Test B flooded paddy test; format: in vivo, Oryza sativa; details: Flood, 250 g ai/ha, 0 to 100 scale where 0 is no effect and 100 is complete control
# Method in brief: (§3)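 Greenhouse flooded-pot test: compounds dosed into 3 cm standing water over 2-leaf plants, flood held constant. Rated visually after 13–15 days on 0–100 (complete control = 100); a dash marks no test result.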
# corn [6] = test: Test A postemergence; format: in vivo, Zea mays
# Method in brief: as §1
# pigweed = test: Test C postemergence; format: in vivo, Amaranthus retroflexus
# Method in brief: as §2
# Heteranthera limosa = test: Test B flooded paddy test; format: in vivo; details: Flood, 250 g ai/ha, 0 to 100 scale where 0 is no effect and 100 is complete control
# Method in brief: as §3
# barnyardgrass [7] = test: Test B flooded paddy test; format: in vivo, Echinochloa crus-galli; details: Flood, 250 g ai/ha, 0 to 100 scale where 0 is no effect and 100 is complete control
# Method in brief: as §3
# [8] = 125 g ai/ha, 0 to 100 scale where 0 is no effect and 100 is complete control
# [9] = 500 g ai/ha, 0 to 100 scale, 0 no effect, 100 complete control
# [10] = Postemergence, 31 g ai/ha, scale 0 to 100 (0 no effect, 100 complete control), 13 to 15 days
# [11] = Postemergence, 62 g ai/ha, scale 0 to 100 (0 no effect, 100 complete control)
# [12] = 62 g ai/ha, preemergence, scale 0 (no effect) to 100 (complete control)
# [13] = 125 g ai/ha, preemergence, scale 0 (no effect) to 100 (complete control)
# [14] = 250 g ai/ha, preemergence, scale 0 (no effect) to 100 (complete control)
compound,measurement,setting,value
N#Cc1cccc(Oc2ncc(Cl)cn2)c1-n1cc(Cl)cn1 [Compound 72],"Plant response rating, Barnyardgrass",barnyardgrass [1]; [8],90
same,"Plant response rating, Barnyardgrass",barnyardgrass [1]; [9],100
same,"Plant response rating (0 to 100), Galium","galium [2]; 125 g ai/ha, postemergence",95
same,"Plant response rating (0 to 100), Galium","galium [2]; 250 g ai/ha, postemergence",95
same,"Plant response rating, Galium",galium [2]; [10],75
same,"Plant response rating, Galium",galium [2]; [11],80
same,Corn plant response rating,corn [3]; [12],25
same,Corn plant response rating,corn [3]; [13],65
same,Corn plant response rating,corn [3]; [14],65
same,"Plant response rating (0 to 100), Corn","corn [4]; 125 g ai/ha, postemergence",15
same,"Plant response rating (0 to 100), Corn","corn [4]; 250 g ai/ha, postemergence",20
same,"Plant response rating, Corn",corn [4]; [10],5
same,"Plant response rating, Corn",corn [4]; [11],10
same,"Plant response rating (0 to 100), Waterhemp","waterhemp; 125 g ai/ha, postemergence",75
same,"Plant response rating (0 to 100), Waterhemp","waterhemp; 250 g ai/ha, postemergence",95
same,"Plant response rating, Waterhemp",waterhemp; [10],75
same,"Plant response rating, Waterhemp",waterhemp; [11],75
same,"Plant response rating (0 to 100), Ryegrass, Italian","Italian ryegrass; 125 g ai/ha, postemergence",10
same,"Plant response rating (0 to 100), Ryegrass, Italian","Italian ryegrass; 250 g ai/ha, postemergence",10
same,"Plant response rating, Ryegrass, Italian",Italian ryegrass; [10],5
same,"Plant response rating, Ryegrass, Italian",Italian ryegrass; [11],5
same,Galium plant response rating,galium [5]; [12],90
same,Galium plant response rating,galium [5]; [13],90
same,Galium plant response rating,galium [5]; [14],95
same,"Plant response rating, Galium","galium [5]; Preemergence, 31 g ai/ha, scale 0 to 100, 0 no effect, 100 complete control",80
same,"Plant response rating (0 to 100), Lambsquarters","lambsquarters; 125 g ai/ha, postemergence",85
same,"Plant response rating (0 to 100), Lambsquarters","lambsquarters; 250 g ai/ha, postemergence",98
same,"Plant response rating, Lambsquarters",lambsquarters; [10],75
same,"Plant response rating, Lambsquarters",lambsquarters; [11],75
same,"Plant response rating, Rice",rice,0
same,"Plant response rating, Corn",corn [6]; [8],50
same,"Plant response rating, Corn",corn [6]; [9],60
same,"Plant response rating (0 to 100), Pigweed","pigweed; 125 g ai/ha, postemergence",85
same,"Plant response rating (0 to 100), Pigweed","pigweed; 250 g ai/ha, postemergence",95
same,"Plant response rating, Pigweed",pigweed; [10],70
same,"Plant response rating, Pigweed",pigweed; [11],80
same,"Plant response rating, Ducksalad",Heteranthera limosa,75
same,"Plant response rating, Barnyardgrass",barnyardgrass [7],0
"N#Cc1cccc(Oc2ncc(F)cn2)c1-n1cc(C(F)(F)F)cn1 [Compound 79, 3-[(5-fluoro-2-pyrimidinyl)oxy]-2-[4-(trifluoromethyl)-1H-pyrazol-1-yl]benzonitrile]",pest or weed control at 125 g/ha,"barnyardgrass [1]; Echinochloa crus-galli, post-emergence, 240 h, 125 g ai/ha, 0 to 100 scale where 0 is no effect and 100 is complete control, read-out: Plant response rating, Barnyardgrass",100%
same,pest or weed control at 500 g/ha,"barnyardgrass [1]; Echinochloa crus-galli, post-emergence, 240 h, 500 g ai/ha, 0 to 100 scale, 0 no effect, 100 complete control, read-out: Plant response rating Barnyardgrass",100%
same,pest or weed control at 125 g/ha,"galium [2]; Galium, post-emergence, 125 g ai/ha, postemergence, read-out: Plant response rating (0 to 100), Galium",80%
same,pest or weed control at 250 g/ha,"galium [2]; Galium, post-emergence, 250 g ai/ha, postemergence, read-out: Plant response rating (0 to 100), Galium",95%
same,pest or weed control at 31 g/ha,"galium [2]; Galium, post-emergence, Postemergence, 31 g ai/ha, scale 0 to 100 (0 no effect, 100 complete control), 13 to 15 days, read-out: Plant response rating, Galium",65%
same,pest or weed control at 62 g/ha,"galium [2]; Galium, post-emergence, Postemergence, 62 g ai/ha, scale 0 to 100 (0 no effect, 100 complete control), read-out: Plant response rating, Galium",75%
same,plant injury at 125 g/ha,"corn [3]; Zea mays, pre-emergence, 125 g ai/ha, preemergence, scale 0 (no effect) to 100 (complete control), read-out: Corn plant response rating",80%
same,plant injury at 250 g/ha,"corn [3]; Zea mays, pre-emergence, 250 g ai/ha, preemergence, scale 0 (no effect) to 100 (complete control), read-out: Corn plant response rating",95%
same,"Corn plant response rating (crop injury, 0 = no effect, 100 = complete kill) at 31 g/ha","corn [3]; Zea mays, pre-emergence, Preemergence, 31 g ai/ha, scale 0 to 100, 0 no effect, 100 complete control",40%
same,plant injury at 125 g/ha,"corn [4]; Zea mays, post-emergence, 125 g ai/ha, postemergence, read-out: Plant response rating (0 to 100), Corn",15%
same,plant injury at 250 g/ha,"corn [4]; Zea mays, post-emergence, 250 g ai/ha, postemergence, read-out: Plant response rating (0 to 100), Corn",35%
same,"Corn plant response rating (crop injury, 0 = no effect, 100 = complete kill) at 31 g/ha","corn [4]; Zea mays, post-emergence, Postemergence, 31 g ai/ha, scale 0 to 100 (0 no effect, 100 complete control), 13 to 15 days",5%
same,"Corn plant response rating (crop injury, 0 = no effect, 100 = complete kill) at 62 g/ha","corn [4]; Zea mays, post-emergence, Postemergence, 62 g ai/ha, scale 0 to 100 (0 no effect, 100 complete control)",5%
same,pest or weed control at 125 g/ha,"waterhemp; Amaranthus tuberculatus, post-emergence, 125 g ai/ha, postemergence, read-out: Plant response rating (0 to 100), Waterhemp",90%
same,pest or weed control at 250 g/ha,"waterhemp; Amaranthus tuberculatus, post-emergence, 250 g ai/ha, postemergence, read-out: Plant response rating (0 to 100), Waterhemp",100%
same,pest or weed control at 31 g/ha,"waterhemp; Amaranthus tuberculatus, post-emergence, Postemergence, 31 g ai/ha, scale 0 to 100 (0 no effect, 100 complete control), 13 to 15 days, read-out: Plant response rating, Waterhemp",75%
same,pest or weed control at 62 g/ha,"waterhemp; Amaranthus tuberculatus, post-emergence, Postemergence, 62 g ai/ha, scale 0 to 100 (0 no effect, 100 complete control), read-out: Plant response rating, Waterhemp",80%
same,pest or weed control at 125 g/ha,"Italian ryegrass; Lolium multiflorum, post-emergence, 125 g ai/ha, postemergence, read-out: Plant response rating (0 to 100), Ryegrass, Italian",20%
same,pest or weed control at 250 g/ha,"Italian ryegrass; Lolium multiflorum, post-emergence, 250 g ai/ha, postemergence, read-out: Plant response rating (0 to 100), Ryegrass, Italian",20%
same,pest or weed control at 31 g/ha,"Italian ryegrass; Lolium multiflorum, post-emergence, Postemergence, 31 g ai/ha, scale 0 to 100 (0 no effect, 100 complete control), 13 to 15 days, read-out: Plant response rating, Ryegrass, Italian",5%
same,pest or weed control at 62 g/ha,"Italian ryegrass; Lolium multiflorum, post-emergence, Postemergence, 62 g ai/ha, scale 0 to 100 (0 no effect, 100 complete control), read-out: Plant response rating, Ryegrass, Italian",10%
same,pest or weed control at 62 g/ha,"galium [5]; Galium, pre-emergence, 62 g ai/ha, preemergence, scale 0 (no effect) to 100 (complete control), read-out: Galium plant response rating",90%
same,pest or weed control at 125 g/ha,"galium [5]; Galium, pre-emergence, 125 g ai/ha, preemergence, scale 0 (no effect) to 100 (complete control), read-out: Galium plant response rating",90%
same,pest or weed control at 250 g/ha,"galium [5]; Galium, pre-emergence, 250 g ai/ha, preemergence, scale 0 (no effect) to 100 (complete control), read-out: Galium plant response rating",90%
same,pest or weed control at 31 g/ha,"galium [5]; Galium, pre-emergence, Preemergence, 31 g ai/ha, scale 0 to 100, 0 no effect, 100 complete control, read-out: Plant response rating, Galium",90%
same,pest or weed control at 125 g/ha,"lambsquarters; Chenopodium album, post-emergence, 125 g ai/ha, postemergence, read-out: Plant response rating (0 to 100), Lambsquarters",95%
same,pest or weed control at 250 g/ha,"lambsquarters; Chenopodium album, post-emergence, 250 g ai/ha, postemergence, read-out: Plant response rating (0 to 100), Lambsquarters",98%
same,pest or weed control at 31 g/ha,"lambsquarters; Chenopodium album, post-emergence, Postemergence, 31 g ai/ha, scale 0 to 100 (0 no effect, 100 complete control), 13 to 15 days, read-out: Plant response rating, Lambsquarters",90%
same,pest or weed control at 62 g/ha,"lambsquarters; Chenopodium album, post-emergence, Postemergence, 62 g ai/ha, scale 0 to 100 (0 no effect, 100 complete control), read-out: Plant response rating, Lambsquarters",95%
same,plant injury at 250 g/ha,"rice; Oryza sativa, read-out: Plant response rating, Rice",45%
same,"Corn plant response rating (crop injury, 0 = no effect, 100 = complete kill) at 125 g/ha","corn [6]; Zea mays, post-emergence, 240 h, 125 g ai/ha, 0 to 100 scale where 0 is no effect and 100 is complete control",80%
same,plant injury at 500 g/ha,"corn [6]; Zea mays, post-emergence, 240 h, 500 g ai/ha, 0 to 100 scale, 0 no effect, 100 complete control, read-out: Plant response rating Corn",100%
same,pest or weed control at 125 g/ha,"pigweed; Amaranthus retroflexus, post-emergence, 125 g ai/ha, postemergence, read-out: Plant response rating (0 to 100), Pigweed",95%
same,pest or weed control at 250 g/ha,"pigweed; Amaranthus retroflexus, post-emergence, 250 g ai/ha, postemergence, read-out: Plant response rating (0 to 100), Pigweed",98%
same,pest or weed control at 31 g/ha,"pigweed; Amaranthus retroflexus, post-emergence, Postemergence, 31 g ai/ha, scale 0 to 100 (0 no effect, 100 complete control), 13 to 15 days, read-out: Plant response rating, Pigweed",75%
same,pest or weed control at 62 g/ha,"pigweed; Amaranthus retroflexus, post-emergence, Postemergence, 62 g ai/ha, scale 0 to 100 (0 no effect, 100 complete control), read-out: Plant response rating, Pigweed",95%
same,pest or weed control at 250 g/ha,"Heteranthera limosa; Heteranthera limosa, read-out: Plant response rating, Ducksalad",95%
same,pest or weed control at 250 g/ha,"barnyardgrass [7]; Echinochloa crus-galli, read-out: Plant response rating, Barnyardgrass",40%
